Laboratory results reported in US10870647B2, “Imidazopyridine derivative, method for preparing same, and pharmaceutical composition containing same as active ingredient for preventing or treating cancer” (DAEGU-GYEONGBUK MEDICAL INNOVATION FOUNDATION, priority 2016, dated 2020).

Assays:
Assay in all cases: Kinase selectivity, scanMAX Kinase assay panel (DiscoverX), % control at 1 uM
Assay type in all cases: binding
[1] = target: T1, scanMAX Kinase assay panel (Homo sapiens, UniProt P42336); conditions: PIK3CA; 1 uM; read-out: Percent Control (%)
T1 construct: purchased DiscoverX
How it was run: (§1)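 Activity was called for kinases showing % control under 35, calculated from compound signal relative to positive and negative controls. Each compound screened at 1 uM against the DiscoverX scanMAX panel.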

[2] = target: T2, scanMAX Kinase assay panel (Homo sapiens, UniProt P10721, V559D/V654A); conditions: KIT (V559D, V654A); 1 uM; read-out: Percent Control (%)
T2 construct: purchased DiscoverX
How it was run: as §1

[3] = target: T3, scanMAX Kinase assay panel (Homo sapiens, UniProt P57078); conditions: RIPK4; 1 uM; read-out: Percent Control (%)
T3 construct: purchased DiscoverX
T3 sequence (P57078 1-832): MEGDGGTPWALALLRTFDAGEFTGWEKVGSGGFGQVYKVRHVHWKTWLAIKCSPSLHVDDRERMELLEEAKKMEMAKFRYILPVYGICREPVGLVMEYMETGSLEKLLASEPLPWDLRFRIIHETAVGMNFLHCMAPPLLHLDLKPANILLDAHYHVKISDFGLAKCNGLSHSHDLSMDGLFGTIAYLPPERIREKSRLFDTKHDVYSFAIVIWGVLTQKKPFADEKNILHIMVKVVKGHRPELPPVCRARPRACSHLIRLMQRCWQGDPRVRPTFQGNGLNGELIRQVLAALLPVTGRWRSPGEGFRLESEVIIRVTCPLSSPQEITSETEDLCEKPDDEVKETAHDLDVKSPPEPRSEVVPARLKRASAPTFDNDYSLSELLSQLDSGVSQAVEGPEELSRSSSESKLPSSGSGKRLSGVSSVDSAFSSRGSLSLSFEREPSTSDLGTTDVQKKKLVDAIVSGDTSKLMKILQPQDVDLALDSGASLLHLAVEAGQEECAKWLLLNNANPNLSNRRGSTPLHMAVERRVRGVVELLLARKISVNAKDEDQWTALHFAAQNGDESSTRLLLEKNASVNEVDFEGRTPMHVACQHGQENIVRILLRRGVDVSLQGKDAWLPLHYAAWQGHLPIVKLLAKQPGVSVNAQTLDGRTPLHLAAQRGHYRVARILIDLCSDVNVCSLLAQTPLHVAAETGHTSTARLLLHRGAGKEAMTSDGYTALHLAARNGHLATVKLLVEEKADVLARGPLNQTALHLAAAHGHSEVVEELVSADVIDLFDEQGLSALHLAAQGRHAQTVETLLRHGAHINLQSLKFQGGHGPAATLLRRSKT
How it was run: as §1

[4] = target: T4, scanMAX Kinase assay panel (Homo sapiens, UniProt O14578); conditions: CIT; 1 uM; read-out: Percent Control (%)
T4 construct: purchased DiscoverX
How it was run: as §1

[5] = target: T5, scanMAX Kinase assay panel (Homo sapiens, UniProt O96017); conditions: CHEK2; 1 uM; read-out: Percent Control (%)
T5 construct: purchased DiscoverX
How it was run: as §1

[6] = target: T6, scanMAX Kinase assay panel (Homo sapiens, UniProt P54646); conditions: AMPK-alpha2; 1 uM; read-out: Percent Control (%)
T6 construct: purchased DiscoverX
How it was run: as §1

[7] = target: T7, scanMAX Kinase assay panel (Homo sapiens, UniProt P49840); conditions: GSK3A; 1 uM; read-out: Percent Control (%)
T7 construct: purchased DiscoverX
How it was run: as §1

[8] = target: T8, scanMAX Kinase assay panel (Homo sapiens, UniProt O60674); conditions: JAK2 (JH1domain-catalytic); 1 uM; read-out: Percent Control (%)
T8 construct: purchased DiscoverX
How it was run: as §1

[9] = target: T9, scanMAX Kinase assay panel (Homo sapiens, UniProt P31152); conditions: ERK4; 1 uM; read-out: Percent Control (%)
T9 construct: purchased DiscoverX
How it was run: as §1

[10] = target: T10, scanMAX Kinase assay panel (Homo sapiens, UniProt P00519, Y253F); conditions: ABL1 (Y253F)-phosphorylated; 1 uM; read-out: Percent Control (%)
T10 construct: purchased DiscoverX
How it was run: as §1

[11] = target: T11, scanMAX Kinase assay panel (Homo sapiens, UniProt O75460); conditions: ERN1; 1 uM; read-out: Percent Control (%)
T11 construct: purchased DiscoverX
How it was run: as §1

[12] = target: T12, scanMAX Kinase assay panel (Homo sapiens, UniProt Q15831); conditions: LKB1; 1 uM; read-out: Percent Control (%)
T12 construct: purchased DiscoverX
T12 sequence (Q15831 1-433): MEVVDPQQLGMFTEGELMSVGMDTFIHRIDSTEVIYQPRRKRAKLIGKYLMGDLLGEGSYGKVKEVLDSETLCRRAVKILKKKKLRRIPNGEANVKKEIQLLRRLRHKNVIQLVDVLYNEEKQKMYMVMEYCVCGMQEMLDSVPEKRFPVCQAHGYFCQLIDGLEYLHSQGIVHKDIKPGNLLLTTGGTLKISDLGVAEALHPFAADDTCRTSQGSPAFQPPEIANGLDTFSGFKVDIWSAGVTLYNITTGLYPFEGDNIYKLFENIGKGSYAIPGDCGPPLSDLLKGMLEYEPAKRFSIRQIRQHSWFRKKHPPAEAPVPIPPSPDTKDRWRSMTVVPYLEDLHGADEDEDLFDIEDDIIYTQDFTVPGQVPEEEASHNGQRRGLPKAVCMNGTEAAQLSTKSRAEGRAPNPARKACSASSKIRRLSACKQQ
How it was run: as §1

[13] = target: T13, scanMAX Kinase assay panel (Homo sapiens, UniProt O00750); conditions: PIK3C2B; 1 uM; read-out: Percent Control (%)
T13 construct: purchased DiscoverX
How it was run: as §1

[14] = target: T14, scanMAX Kinase assay panel (Homo sapiens, UniProt P10721, L576P); conditions: KIT (L576P); 1 uM; read-out: Percent Control (%)
T14 construct: purchased DiscoverX
How it was run: as §1

[15] = target: T15, scanMAX Kinase assay panel (Homo sapiens, UniProt P53779); conditions: JNK3; 1 uM; read-out: Percent Control (%)
T15 construct: purchased DiscoverX
How it was run: as §1

T9 sequence (P31152 whole entry): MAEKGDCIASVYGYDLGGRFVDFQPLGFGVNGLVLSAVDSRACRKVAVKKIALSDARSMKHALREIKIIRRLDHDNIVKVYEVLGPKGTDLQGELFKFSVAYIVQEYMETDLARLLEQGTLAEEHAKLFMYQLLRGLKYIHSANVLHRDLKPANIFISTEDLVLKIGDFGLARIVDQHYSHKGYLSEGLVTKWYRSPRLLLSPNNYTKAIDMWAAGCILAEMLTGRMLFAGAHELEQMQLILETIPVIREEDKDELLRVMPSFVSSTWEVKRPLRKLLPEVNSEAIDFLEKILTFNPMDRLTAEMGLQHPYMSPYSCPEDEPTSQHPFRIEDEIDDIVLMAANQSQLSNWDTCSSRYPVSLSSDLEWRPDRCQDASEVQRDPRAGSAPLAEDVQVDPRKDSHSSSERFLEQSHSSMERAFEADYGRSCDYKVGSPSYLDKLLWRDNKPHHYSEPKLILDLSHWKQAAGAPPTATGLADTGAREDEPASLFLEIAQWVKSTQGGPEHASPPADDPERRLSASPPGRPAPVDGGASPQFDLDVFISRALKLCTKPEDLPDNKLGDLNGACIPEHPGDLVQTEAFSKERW
T15 sequence (P53779 whole entry): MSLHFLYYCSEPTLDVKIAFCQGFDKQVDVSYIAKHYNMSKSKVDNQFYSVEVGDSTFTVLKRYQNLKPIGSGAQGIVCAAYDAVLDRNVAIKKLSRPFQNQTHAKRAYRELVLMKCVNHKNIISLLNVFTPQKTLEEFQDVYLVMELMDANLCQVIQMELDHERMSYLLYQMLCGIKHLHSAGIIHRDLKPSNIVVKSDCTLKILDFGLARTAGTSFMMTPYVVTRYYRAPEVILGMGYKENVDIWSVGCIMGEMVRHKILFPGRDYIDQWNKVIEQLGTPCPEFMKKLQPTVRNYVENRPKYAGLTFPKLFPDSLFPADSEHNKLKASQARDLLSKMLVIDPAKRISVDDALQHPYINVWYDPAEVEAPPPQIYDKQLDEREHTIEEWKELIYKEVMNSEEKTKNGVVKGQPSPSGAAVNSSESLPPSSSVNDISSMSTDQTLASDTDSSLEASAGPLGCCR
T4 sequence (O14578 whole entry): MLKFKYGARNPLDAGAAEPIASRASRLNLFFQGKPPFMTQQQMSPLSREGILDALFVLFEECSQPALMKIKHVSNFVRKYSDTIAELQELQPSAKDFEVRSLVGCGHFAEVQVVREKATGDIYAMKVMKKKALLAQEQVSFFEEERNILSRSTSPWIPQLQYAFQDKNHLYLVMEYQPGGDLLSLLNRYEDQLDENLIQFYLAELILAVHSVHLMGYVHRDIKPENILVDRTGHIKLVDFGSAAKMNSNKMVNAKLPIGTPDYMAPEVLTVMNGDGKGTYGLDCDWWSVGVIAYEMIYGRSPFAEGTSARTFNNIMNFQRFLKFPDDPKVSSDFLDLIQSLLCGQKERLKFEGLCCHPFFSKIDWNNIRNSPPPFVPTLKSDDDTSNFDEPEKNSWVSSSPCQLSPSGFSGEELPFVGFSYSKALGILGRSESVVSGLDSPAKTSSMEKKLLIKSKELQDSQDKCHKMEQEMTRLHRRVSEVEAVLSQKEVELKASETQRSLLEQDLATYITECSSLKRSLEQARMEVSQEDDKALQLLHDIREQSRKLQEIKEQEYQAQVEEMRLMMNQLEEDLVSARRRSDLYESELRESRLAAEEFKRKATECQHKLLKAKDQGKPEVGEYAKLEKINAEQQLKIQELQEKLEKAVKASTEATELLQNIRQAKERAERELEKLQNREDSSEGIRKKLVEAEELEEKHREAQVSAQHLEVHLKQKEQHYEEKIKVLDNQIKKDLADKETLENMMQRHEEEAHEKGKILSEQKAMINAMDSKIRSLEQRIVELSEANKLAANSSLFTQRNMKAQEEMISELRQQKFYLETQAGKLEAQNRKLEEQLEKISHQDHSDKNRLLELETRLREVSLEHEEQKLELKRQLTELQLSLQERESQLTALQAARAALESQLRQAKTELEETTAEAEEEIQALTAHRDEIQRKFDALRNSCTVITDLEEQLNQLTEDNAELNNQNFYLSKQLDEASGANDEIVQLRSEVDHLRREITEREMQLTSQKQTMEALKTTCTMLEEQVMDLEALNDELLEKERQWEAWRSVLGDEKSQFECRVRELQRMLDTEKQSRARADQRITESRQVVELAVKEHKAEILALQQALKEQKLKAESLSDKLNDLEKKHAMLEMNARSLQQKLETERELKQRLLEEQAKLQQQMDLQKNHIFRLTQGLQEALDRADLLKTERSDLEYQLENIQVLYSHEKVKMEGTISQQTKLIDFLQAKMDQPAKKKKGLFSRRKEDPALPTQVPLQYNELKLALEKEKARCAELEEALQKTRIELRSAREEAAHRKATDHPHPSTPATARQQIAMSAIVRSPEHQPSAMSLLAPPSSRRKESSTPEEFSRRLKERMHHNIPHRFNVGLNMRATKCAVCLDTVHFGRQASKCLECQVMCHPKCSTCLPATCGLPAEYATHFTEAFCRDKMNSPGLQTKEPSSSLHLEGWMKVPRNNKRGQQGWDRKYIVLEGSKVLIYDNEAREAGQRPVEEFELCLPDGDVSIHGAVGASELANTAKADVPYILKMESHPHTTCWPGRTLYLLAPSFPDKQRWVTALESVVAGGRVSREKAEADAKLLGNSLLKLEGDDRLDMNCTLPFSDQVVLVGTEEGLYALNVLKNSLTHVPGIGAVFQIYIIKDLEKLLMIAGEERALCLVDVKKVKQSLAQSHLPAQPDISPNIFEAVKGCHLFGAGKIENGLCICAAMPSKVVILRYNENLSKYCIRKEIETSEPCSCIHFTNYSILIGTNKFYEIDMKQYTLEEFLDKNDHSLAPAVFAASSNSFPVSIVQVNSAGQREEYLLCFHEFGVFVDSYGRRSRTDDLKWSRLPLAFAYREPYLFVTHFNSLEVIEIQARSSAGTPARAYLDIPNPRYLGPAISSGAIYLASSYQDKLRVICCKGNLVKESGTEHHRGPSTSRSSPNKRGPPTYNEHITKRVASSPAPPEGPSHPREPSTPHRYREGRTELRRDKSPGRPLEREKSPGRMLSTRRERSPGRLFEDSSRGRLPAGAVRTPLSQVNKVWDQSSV
T6 sequence (P54646 whole entry): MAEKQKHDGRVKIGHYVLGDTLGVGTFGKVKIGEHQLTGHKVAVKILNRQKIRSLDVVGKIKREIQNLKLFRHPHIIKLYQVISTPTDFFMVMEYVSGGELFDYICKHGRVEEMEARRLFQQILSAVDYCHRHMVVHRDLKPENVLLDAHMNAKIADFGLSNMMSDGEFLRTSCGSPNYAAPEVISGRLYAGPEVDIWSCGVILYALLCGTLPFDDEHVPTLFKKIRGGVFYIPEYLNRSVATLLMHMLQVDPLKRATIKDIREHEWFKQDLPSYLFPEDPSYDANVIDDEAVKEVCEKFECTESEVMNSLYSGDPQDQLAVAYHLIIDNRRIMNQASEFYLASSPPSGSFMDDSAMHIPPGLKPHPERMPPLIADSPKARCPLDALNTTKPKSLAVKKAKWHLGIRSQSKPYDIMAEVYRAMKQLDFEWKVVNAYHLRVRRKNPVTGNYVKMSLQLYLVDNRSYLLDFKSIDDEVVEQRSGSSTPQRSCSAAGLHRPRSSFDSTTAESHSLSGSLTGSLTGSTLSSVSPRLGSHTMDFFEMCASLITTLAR
T8 sequence (O60674 whole entry): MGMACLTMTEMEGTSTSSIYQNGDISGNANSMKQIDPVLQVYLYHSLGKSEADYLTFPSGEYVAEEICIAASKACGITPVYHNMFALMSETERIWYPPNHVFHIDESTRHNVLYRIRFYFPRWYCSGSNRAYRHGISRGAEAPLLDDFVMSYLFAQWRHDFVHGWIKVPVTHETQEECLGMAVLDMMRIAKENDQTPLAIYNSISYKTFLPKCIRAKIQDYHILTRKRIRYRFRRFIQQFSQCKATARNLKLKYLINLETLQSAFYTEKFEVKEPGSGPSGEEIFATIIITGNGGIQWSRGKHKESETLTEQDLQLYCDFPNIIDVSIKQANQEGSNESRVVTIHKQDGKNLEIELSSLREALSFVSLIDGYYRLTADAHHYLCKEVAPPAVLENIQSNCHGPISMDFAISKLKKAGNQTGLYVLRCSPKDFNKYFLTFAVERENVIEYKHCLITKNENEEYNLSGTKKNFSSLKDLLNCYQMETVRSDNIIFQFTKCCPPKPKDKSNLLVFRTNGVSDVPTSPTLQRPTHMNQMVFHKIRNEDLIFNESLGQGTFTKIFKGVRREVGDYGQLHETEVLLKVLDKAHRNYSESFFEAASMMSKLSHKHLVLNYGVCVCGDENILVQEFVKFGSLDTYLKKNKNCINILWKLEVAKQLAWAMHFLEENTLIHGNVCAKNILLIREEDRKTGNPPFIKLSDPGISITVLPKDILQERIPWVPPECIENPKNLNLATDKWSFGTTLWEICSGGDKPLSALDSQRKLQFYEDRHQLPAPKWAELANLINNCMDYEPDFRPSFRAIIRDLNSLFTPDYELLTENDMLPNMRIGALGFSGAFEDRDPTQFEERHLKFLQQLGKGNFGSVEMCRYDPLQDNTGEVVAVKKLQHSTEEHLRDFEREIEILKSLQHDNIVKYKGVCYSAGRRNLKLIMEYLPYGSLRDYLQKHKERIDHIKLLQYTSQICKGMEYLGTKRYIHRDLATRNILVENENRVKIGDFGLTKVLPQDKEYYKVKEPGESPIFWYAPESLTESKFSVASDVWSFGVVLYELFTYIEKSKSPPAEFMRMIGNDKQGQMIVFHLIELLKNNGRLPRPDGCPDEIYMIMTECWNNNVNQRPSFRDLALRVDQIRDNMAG

Cc1ccc(C(=O)Nc2ccc(CN3CCN(C)CC3)c(C(F)(F)F)c2)cc1C#Cc1cnc2c(Nc3cnn(C)c3)cccn12 [Example 1, 4-methyl-3-((8-((1-methyl-1H-pyrazol-4-yl)amino)imidazo[1,2-a]pyridin-3-yl)ethynyl)-N-(4-((4-methylpiperazin-1-yl)methyl)-3-(trifluoromethyl)phenyl)benzamide]
remaining binding at 1 µM [1]: 99%
remaining binding at 1 µM [2]: 1%
remaining binding at 1 µM [3]: 13%
remaining binding at 1 µM [4]: 0%
remaining binding at 1 µM [5]: 34%
remaining binding at 1 µM [6]: 4%
remaining binding at 1 µM [7]: 76%
remaining binding at 1 µM [8]: 7%
remaining binding at 1 µM [9]: 91%
remaining binding at 1 µM [10]: 0%
remaining binding at 1 µM [11]: 62%
remaining binding at 1 µM [12]: 98%
remaining binding at 1 µM [13]: 100%
remaining binding at 1 µM [14]: 0%
remaining binding at 1 µM [15]: 19%

Cc1cn(-c2cc(NC(=O)c3ccc(C)c(C#Cc4cnc5c(Nc6cnn(C)c6)cccn45)c3)cc(C(F)(F)F)c2)cn1 [Example 12, 4-methyl-N-(3-(4-methyl-1H-imidazol-1-yl)-5-(trifluoromethyl)phenyl)-3-((8-((1-methyl-1H-pyrazol-4-yl)amino)imidazo[1,2-a]pyridin-3-yl)ethynyl)benzamide]
remaining binding at 1 µM [1]: 100%
remaining binding at 1 µM [2]: 11%
remaining binding at 1 µM [3]: 100%
remaining binding at 1 µM [4]: 0%
remaining binding at 1 µM [5]: 84%
remaining binding at 1 µM [6]: 79%
remaining binding at 1 µM [7]: 100%
remaining binding at 1 µM [8]: 100%
remaining binding at 1 µM [9]: 100%
remaining binding at 1 µM [10]: 10%
remaining binding at 1 µM [11]: 100%
remaining binding at 1 µM [12]: 85%
remaining binding at 1 µM [13]: 91%
remaining binding at 1 µM [14]: 17%
remaining binding at 1 µM [15]: 98%

Cc1ccc(NC(=O)C2(C(=O)Nc3ccc(F)cc3)CC2)cc1C#Cc1cnc2c(Nc3cnn(C(C)C)c3)cccn12 [Example 78]
remaining binding at 1 µM [1]: 100%
remaining binding at 1 µM [2]: 10%
remaining binding at 1 µM [3]: 100%
remaining binding at 1 µM [4]: 100%
remaining binding at 1 µM [5]: 91%
remaining binding at 1 µM [6]: 100%
remaining binding at 1 µM [7]: 100%
remaining binding at 1 µM [8]: 98%
remaining binding at 1 µM [9]: 100%
remaining binding at 1 µM [10]: 88%
remaining binding at 1 µM [11]: 97%
remaining binding at 1 µM [12]: 100%
remaining binding at 1 µM [13]: 100%
remaining binding at 1 µM [14]: 0%
remaining binding at 1 µM [15]: 100%
